We go through 8 compounds from PubChem BioAssay AID1745844 (Carcinogenic Potency Database (CPDB), 2022).

The test system of this data set is rodent lifetime carcinogenesis bioassay, tumor incidence TD50. Put plainly: chronic cancer bioassays in animals – CPDB, compiled studies (AID 1745844).

Active and inactive are the calls of the source. The rule behind the calls is not given here.

In general, TD50 refers to the 50% point of the dose-response relation for the toxic effect studied. As to `COS(C)(=O)=O`, the TD50 (mouse, strain RF, males, in drinking water, site: liver, lesion: one or several types, types not named, dosed 104 weeks, study length 104 weeks) is 3980 mg/kg/day (inactive); the TD50 (mouse, strain RF, males, in drinking water, site: lung, lesion: adenoma, dosed 104 weeks, study length 104 weeks) is 31.8 mg/kg/day; the TD50 (mouse, strain RF, males, in drinking water, site: thymus gland, lesion: lymphoma, dosed 104 weeks, study length 104 weeks) is 185 mg/kg/day.
In the case of `O=C(O)CCCC/C=C(\c1ccccc1)c1cccnc1`, the carcinogen call reads like this: (mouse, strain Charles River CD1, females, in feed, site: any site (literature study), lesion: several types, types named in the paper, dosed 104 weeks, study length 104 weeks) “negative (inactive)”; (mouse, strain Charles River CD1, females, in feed, site: lung, lesion: alveolar/bronchiolar adenoma, dosed 104 weeks, study length 104 weeks) “negative (inactive)”; (mouse, strain Charles River CD1, females, in feed, site: lung, lesion: alveolar/bronchiolar carcinoma, dosed 104 weeks, study length 104 weeks) “negative (inactive)”; (mouse, strain Charles River CD1, males, in feed, site: lung, lesion: alveolar/bronchiolar carcinoma, dosed 104 weeks, study length 104 weeks) “negative (inactive)”; (rat, strain Charles River CD (Sprague-Dawley), females, in feed, site: liver, lesion: hepatocellular adenoma, dosed 104 weeks, study length 104 weeks) “negative (inactive)”; (rat, strain Charles River CD (Sprague-Dawley), males, in feed, site: liver, lesion: hepatocellular adenoma, dosed 104 weeks, study length 104 weeks) “negative (inactive)”. For the same compound, the TD50 (mouse, strain Charles River CD1, females, in feed, site: liver, lesion: hepatocellular adenoma, dosed 104 weeks, study length 104 weeks) was 4930 mg/kg/day (inactive); the TD50 (mouse, strain Charles River CD1, males, in feed, site: any site (literature study), lesion: several types, types named in the paper, dosed 104 weeks, study length 104 weeks) is 1090 mg/kg/day (inactive); the TD50 (mouse, strain Charles River CD1, males, in feed, site: liver, lesion: hepatocellular adenoma, dosed 104 weeks, study length 104 weeks) is 2050 mg/kg/day (inactive); the TD50 (mouse, strain Charles River CD1, males, in feed, site: liver, lesion: hepatocellular carcinoma, dosed 104 weeks, study length 104 weeks) is 10200 mg/kg/day (inactive); the TD50 (mouse, strain Charles River CD1, males, in feed, site: lung, lesion: alveolar/bronchiolar adenoma, dosed 104 weeks, study length 104 weeks) is 1220 mg/kg/day (inactive).
With `O=c1[nH]nc(-c2ccc([N+](=O)[O-])o2)o1`, the TD50 by setting is: (rat, strain Sprague-Dawley, females, in feed, site: any site (literature study), lesion: several types, types named in the paper, dosed 46 weeks, study length 66 weeks) 8.61 mg/kg/day; (rat, strain Sprague-Dawley, females, in feed, site: mammary gland, lesion: adenocarcinoma, dosed 46 weeks, study length 66 weeks) 31.2 mg/kg/day; (rat, strain Sprague-Dawley, females, in feed, site: mammary gland, lesion: several types, types named in the paper, dosed 46 weeks, study length 66 weeks) 8.61 mg/kg/day.
Take `NC(=O)CCCCC(N)=O`: the carcinogen call reads like this: (mouse, strain C57BL/6, females, in feed, site: liver, lesion: hepatocellular carcinoma, dosed 52 weeks, study length 69 weeks) “negative (inactive)”; (mouse, strain C57BL/6, males, in feed, site: liver, lesion: hepatocellular carcinoma, dosed 52 weeks, study length 69 weeks) “negative (inactive)”; (mouse, strain C57BL/6, males, in feed, site: lung, lesion: alveolar/bronchiolar adenoma, dosed 52 weeks, study length 69 weeks) “negative (inactive)”; (rat, strain Fischer 344, females, in feed, site: liver, lesion: one or several types, types not named, dosed 52 weeks, study length 69 weeks) “negative (inactive)”. The TD50 reads like this: (mouse, strain C57BL/6, females, in feed, site: lung, lesion: alveolar/bronchiolar adenoma, dosed 52 weeks, study length 69 weeks) 8550 mg/kg/day (inactive); (rat, strain Fischer 344, males, in feed, site: liver, lesion: hepatocellular carcinoma, dosed 52 weeks, study length 69 weeks) 6420 mg/kg/day.
For the compound `CN(C)C(=S)S[Se](SC(=S)N(C)C)(SC(=S)N(C)C)SC(=S)N(C)C`, the carcinogen call (mouse, strain B6AKF1, females, oral dosing, site: any site (literature study), lesion: several types, types named in the paper, dosed 76 weeks, study length 76 weeks) is “negative (inactive)”; the carcinogen call (mouse, strain B6AKF1, females, oral dosing, site: liver, lesion: hepatoma, dosed 76 weeks, study length 76 weeks) was “negative (inactive)”; the carcinogen call (mouse, strain B6AKF1, females, oral dosing, site: lung, lesion: adenoma, dosed 76 weeks, study length 76 weeks) was “negative (inactive)”; the carcinogen call (mouse, strain B6AKF1, males, oral dosing, site: any site (literature study), lesion: several types, types named in the paper, dosed 76 weeks, study length 76 weeks) is “negative (inactive)”; the carcinogen call (mouse, strain B6AKF1, males, oral dosing, site: liver, lesion: hepatoma, dosed 76 weeks, study length 76 weeks) is “negative (inactive)”; the carcinogen call (mouse, strain B6AKF1, males, oral dosing, site: lung, lesion: adenoma, dosed 76 weeks, study length 76 weeks) is “negative (inactive)”. Further, the carcinogen call (mouse, strain B6C3F1, females, oral dosing, site: any site (literature study), lesion: one or several types, types not named, dosed 76 weeks, study length 76 weeks) was “negative (inactive)”; the carcinogen call (mouse, strain B6C3F1, females, oral dosing, site: liver, lesion: hepatoma, dosed 76 weeks, study length 76 weeks) was “negative (inactive)”; the carcinogen call (mouse, strain B6C3F1, females, oral dosing, site: lung, lesion: several types, types named in the paper, dosed 76 weeks, study length 76 weeks) is “negative (inactive)”; the carcinogen call (mouse, strain B6C3F1, males, oral dosing, site: lung, lesion: several types, types named in the paper, dosed 76 weeks, study length 76 weeks) is “negative (inactive)”. Further, the TD50 was 5.88 mg/kg/day (inactive) (mouse, strain B6C3F1, males, oral dosing, site: any site (literature study), lesion: several types, types named in the paper, dosed 76 weeks, study length 76 weeks) and 26 mg/kg/day (inactive) (mouse, strain B6C3F1, males, oral dosing, site: liver, lesion: hepatoma, dosed 76 weeks, study length 76 weeks).
Consider `CCCCCCCC(=O)OCC(COC(=O)CCCCCCC)OC(=O)CCCCCCC`, for which the TD50 is, setting by setting: (rat, strain Fischer 344, males, by gavage, site: any site (literature study), lesion: several types, types named in the paper, dosed 104 weeks, study length 104 weeks) 69900 mg/kg/day; (rat, strain Fischer 344, males, by gavage, site: forestomach, lesion: squamous-cell papilloma, dosed 104 weeks, study length 104 weeks) 15700 mg/kg/day; (rat, strain Fischer 344, males, by gavage, site: liver, lesion: hepatocellular adenoma + hepatoblastoma + hepatocellular carcinoma, dosed 104 weeks, study length 104 weeks) 37100 mg/kg/day; (rat, strain Fischer 344, males, by gavage, site: liver, lesion: hepatocellular adenoma, dosed 104 weeks, study length 104 weeks) 37100 mg/kg/day; (rat, strain Fischer 344, males, by gavage, site: pancreas, lesion: acinar-cell adenoma, dosed 104 weeks, study length 104 weeks) 5490 mg/kg/day (inactive).
Turning to `O=C1OC(O)C(C(Cl)Cl)=C1Cl` (configuration not stated), the TD50 is, setting by setting: (rat, strain Wistar, females, in drinking water, site: adrenal gland, lesion: cortical adenoma, dosed 104 weeks, study length 104 weeks) 10.6 mg/kg/day; (rat, strain Wistar, females, in drinking water, site: all sites, lesion: lymphoma and leukemia, combined, dosed 104 weeks, study length 104 weeks) 41.5 mg/kg/day; (rat, strain Wistar, females, in drinking water, site: liver, lesion: cholangioadenoma/carcinoma, dosed 104 weeks, study length 104 weeks) 2.73 mg/kg/day; (rat, strain Wistar, females, in drinking water, site: liver, lesion: cholangiocarcinoma, dosed 104 weeks, study length 104 weeks) 122 mg/kg/day; (rat, strain Wistar, females, in drinking water, site: liver, lesion: cholangioma, dosed 104 weeks, study length 104 weeks) 2.73 mg/kg/day; (rat, strain Wistar, females, in drinking water, site: liver, lesion: hepatocellular adenoma, dosed 104 weeks, study length 104 weeks) 16 mg/kg/day. For the same compound, the TD50 reads like this: (rat, strain Wistar, females, in drinking water, site: liver, lesion: hepatocellular tumor, dosed 104 weeks, study length 104 weeks) 14.9 mg/kg/day; (rat, strain Wistar, females, in drinking water, site: mammary gland, lesion: adenocarcinoma, dosed 104 weeks, study length 104 weeks) 14 mg/kg/day; (rat, strain Wistar, females, in drinking water, site: mammary gland, lesion: fibroadenoma, dosed 104 weeks, study length 104 weeks) 5.13 mg/kg/day; (rat, strain Wistar, females, in drinking water, site: mammary gland, lesion: several types, types named in the paper, dosed 104 weeks, study length 104 weeks) 13 mg/kg/day; (rat, strain Wistar, females, in drinking water, site: thyroid gland, lesion: follicular-cell adenoma, dosed 104 weeks, study length 104 weeks) 0.645 mg/kg/day; (rat, strain Wistar, females, in drinking water, site: thyroid gland, lesion: follicular-cell carcinoma, dosed 104 weeks, study length 104 weeks) 5.2 mg/kg/day. Besides, the TD50 (rat, strain Wistar, females, in drinking water, site: thyroid gland, lesion: several types, types named in the paper, dosed 104 weeks, study length 104 weeks) is 0.741 mg/kg/day; the TD50 (rat, strain Wistar, males, in drinking water, site: adrenal gland, lesion: cortical adenoma, dosed 104 weeks, study length 104 weeks) was 9.68 mg/kg/day; the TD50 (rat, strain Wistar, males, in drinking water, site: all sites, lesion: lymphoma and leukemia, combined, dosed 104 weeks, study length 104 weeks) is 53.1 mg/kg/day; the TD50 (rat, strain Wistar, males, in drinking water, site: liver, lesion: cholangioma, dosed 104 weeks, study length 104 weeks) was 31.4 mg/kg/day; the TD50 (rat, strain Wistar, males, in drinking water, site: liver, lesion: hepatocellular adenoma, dosed 104 weeks, study length 104 weeks) was 24.4 mg/kg/day; the TD50 (rat, strain Wistar, males, in drinking water, site: liver, lesion: hepatocellular carcinoma, dosed 104 weeks, study length 104 weeks) came out at 53.4 mg/kg/day. Moreover, the TD50 is 17.7 mg/kg/day (rat, strain Wistar, males, in drinking water, site: liver, lesion: hepatocellular tumor, dosed 104 weeks, study length 104 weeks); 23.4 mg/kg/day (rat, strain Wistar, males, in drinking water, site: lung, lesion: alveolar/bronchiolar adenoma, dosed 104 weeks, study length 104 weeks); 16 mg/kg/day (rat, strain Wistar, males, in drinking water, site: pancreatic islets, lesion: islet-cell adenoma, dosed 104 weeks, study length 104 weeks); 16.6 mg/kg/day (rat, strain Wistar, males, in drinking water, site: pancreatic islets, lesion: several types, types named in the paper, dosed 104 weeks, study length 104 weeks); 0.532 mg/kg/day (rat, strain Wistar, males, in drinking water, site: thyroid gland, lesion: follicular-cell adenoma, dosed 104 weeks, study length 104 weeks); 3.25 mg/kg/day (rat, strain Wistar, males, in drinking water, site: thyroid gland, lesion: follicular-cell carcinoma, dosed 104 weeks, study length 104 weeks). The TD50 (rat, strain Wistar, males, in drinking water, site: thyroid gland, lesion: several types, types named in the paper, dosed 104 weeks, study length 104 weeks) was 0.678 mg/kg/day.
For the compound `CC(N)=S`, the TD50 was 15.3 mg/kg/day (mouse, strain ICR, males, in feed, site: liver, lesion: hepatocellular carcinoma, dosed 40 weeks, study length 88 weeks); 12 mg/kg/day (mouse, strain ICR, males, in feed, site: liver, lesion: hyperplastic nodule, dosed 40 weeks, study length 88 weeks); 5.36 mg/kg/day (mouse, strain Swiss, females, in feed, site: liver, lesion: hepatoma, dosed 65 weeks, study length 65 weeks); 21.8 mg/kg/day (rat, strain Donryu, males, in feed, site: liver, lesion: hepatocellular carcinoma, trabecular, dosed 40 weeks, study length 80 weeks); 27.6 mg/kg/day (rat, strain Donryu, males, in feed, site: liver, lesion: papillary adenocarcinoma, dosed 40 weeks, study length 80 weeks); 11.5 mg/kg/day (rat, strain Donryu, males, in feed, site: liver, lesion: several types, types named in the paper, dosed 40 weeks, study length 80 weeks). Also, for the setting “mouse, strain Swiss, males, in feed, site: liver, lesion: hepatoma, dosed 65 weeks, study length 65 weeks”, the carcinogen call is “positive”.
